Twelve compounds from patent US20260152527A1, “NOVEL MELANOCORTIN ANALOGS” (priority 2022, published 2026) can be followed below.

Positions of bridges follow the written chain, without caps; N, C: chain ends. Non-standard residues stand in square brackets, D forms with d. Residues, ends and D or L forms follow the SMILES beside them. Triazole bridges read from a SMILES are 1,4-linked. Lys(N3) = [N-]=[N+]=NCCCC[C@H](N)C(=O)O; Orn(N3) = [N-]=[N+]=NCCC[C@H](N)C(=O)O; R8 = C=CCCCCCC[C@@](C)(N)C(=O)O; Aad = N[C@@H](CCCC(=O)O)C(=O)O; S5 = C=CCCC[C@](C)(N)C(=O)O; Hpra = C#CCC[C@H](N)C(=O)O; dPra = C#CC[C@@H](N)C(=O)O; Nle = CCCC[C@H](N)C(=O)O; Pra = C#CC[C@H](N)C(=O)O

What is called IC50 is the concentration at which inhibition is half-maximal.

T4 sequence (P32245 whole entry): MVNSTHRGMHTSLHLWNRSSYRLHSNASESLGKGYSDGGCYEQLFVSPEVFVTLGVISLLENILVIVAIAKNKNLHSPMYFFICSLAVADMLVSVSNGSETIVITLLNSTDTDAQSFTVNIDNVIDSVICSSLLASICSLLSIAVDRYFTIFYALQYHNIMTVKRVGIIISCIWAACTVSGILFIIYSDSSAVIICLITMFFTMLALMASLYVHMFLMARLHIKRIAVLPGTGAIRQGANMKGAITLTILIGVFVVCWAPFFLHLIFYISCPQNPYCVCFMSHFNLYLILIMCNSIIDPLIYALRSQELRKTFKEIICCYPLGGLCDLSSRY
T2 sequence (P41968 whole entry): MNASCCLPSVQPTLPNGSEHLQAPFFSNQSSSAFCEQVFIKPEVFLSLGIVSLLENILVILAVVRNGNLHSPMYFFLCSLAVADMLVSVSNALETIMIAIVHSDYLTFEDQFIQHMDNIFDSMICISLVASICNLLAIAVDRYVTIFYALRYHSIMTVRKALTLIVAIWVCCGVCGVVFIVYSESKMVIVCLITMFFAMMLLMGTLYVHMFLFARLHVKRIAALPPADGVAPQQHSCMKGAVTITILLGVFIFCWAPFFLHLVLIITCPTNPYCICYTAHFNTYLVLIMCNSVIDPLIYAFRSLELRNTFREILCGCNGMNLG

The target in the first test is T1, human recombinant MC1R (Homo sapiens, UniProt Q01726).
T1 construct: host or cells: CHO-K1
T1 sequence (Q01726 whole entry): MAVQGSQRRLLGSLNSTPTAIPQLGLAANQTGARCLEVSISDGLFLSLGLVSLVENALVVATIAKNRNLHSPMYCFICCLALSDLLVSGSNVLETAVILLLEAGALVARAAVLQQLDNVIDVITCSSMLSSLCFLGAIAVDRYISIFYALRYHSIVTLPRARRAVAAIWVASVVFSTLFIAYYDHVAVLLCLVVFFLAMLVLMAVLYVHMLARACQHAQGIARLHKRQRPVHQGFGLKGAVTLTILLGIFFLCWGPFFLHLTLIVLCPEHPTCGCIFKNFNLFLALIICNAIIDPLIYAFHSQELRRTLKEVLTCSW
Nature of the test: cyclic AMP (cAMP) functional assay, MC1R stable cell line (CHO-K1).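 Note: cells with test compound for 60 min at room temperature in buffer containing IBMX, then cAMP quantified by Eu-cAMP tracer and ULight anti-cAMP detection.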 In kind it is cell-based. Particulars: cAMP functional assay.
Experimental: The cyclic AMP (cAMP) functional assay was performed on a human recombinant MC1R stable cell line (CHO-K1, GenScript). The cells were cultured at 37° C. and 5% CO2 with culture medium (90% Ham's F-12K (Kaighn's)+10% FBS+400 μg/mL G418). […] Then, 100 nL of compounds were transferred to the assay plate by the Echo machine. Cells were washed with PBS and then detached by incubation with 0.05% (w/v) Trypsin EDTA at 37° C. for 2 to 5 mins. Cells were collected with stimulation buffer (1×HBSS with 5 mM HEPES+0.2 mM IBMX+0.1% BSA) and 10 ul of cells (the density of 2,500 cells/well) solution was transferred to assay plate, centrifuged at 600 rpm for 3 min and then incubated with compounds at room temperature for 60 min. After that, 5 μL 4×Eu-cAMP tracer solution and 5 μL 4×ULight™-anti-cAMP solution was added into the cells, centrifuged at 600 rpm for 3 min and incubated for 60 min. The cAMP signal was detected with Envision® Multimode Plate Reader (PerkinElmer).
As for `CCCC[C@H](NC(C)=O)C(=O)N[C@H]1CCCCn2cc(nn2)C[C@@H](C(=O)N[C@@H](CCCC(N)=O)C(N)=O)NC(=O)[C@H](Cc2c[nH]c3ccccc23)NC(=O)[C@H](CCCNC(=N)N)NC(=O)[C@@H](Cc2ccccc2)NC(=O)[C@H](Cc2c[nH]cn2)NC1=O` [KR-057, Ac-Nle-[Lys(N3)-His-DPhe-Arg-Trp-Pra]-Hgln-NH2] (Ac-[Nle][Lys(N3)]H[dF]RW[Pra][Aad](NH2)-NH2; triazole 2-7), the IC50 worked out at 0.024 nM.
The same measure, in the same setting: the same measure for `CCCC[C@H](NC(C)=O)C(=O)N[C@H]1Cc2cn(nn2)CCCC[C@@H](C(=O)N[C@@H](CCCCN)C(N)=O)NC(=O)[C@H](Cc2c[nH]c3ccccc23)NC(=O)[C@H](CCCNC(=N)N)NC(=O)[C@@H](Cc2ccccc2)NC(=O)[C@H](Cc2c[nH]cn2)NC1=O` [KR-067, Ac-Nle-[Pra-His-DPhe-Arg-Trp-Lys(N3)]-Lys-NH2] (Ac-[Nle][Pra]H[dF]RW[Lys(N3)]K-NH2; triazole 2-7): 0.11 nM.
With `CCCC[C@H](NC(C)=O)C(=O)N[C@H]1CCCn2cc(nn2)CC[C@@H](C(=O)N[C@@H](CCCCN)C(N)=O)NC(=O)[C@H](Cc2c[nH]c3ccccc23)NC(=O)[C@H](CCCNC(=N)N)NC(=O)[C@@H](Cc2ccccc2)NC(=O)[C@H](Cc2c[nH]cn2)NC1=O` [KR-068, Ac-Nle-[Orn(N3)-His-DPhe-Arg-Trp-Hpra]-Lys-NH2] (Ac-[Nle][Orn(N3)]H[dF]RW[Hpra]K-NH2; triazole 2-7), the IC50 is 0.04 nM.

A further test concerns the target T2, human recombinant MC3R (Homo sapiens, UniProt P41968).
T2 construct: host or cells: CHO-K1/Gα15
As to the kind of experiment: Ca2+ signalling functional assay, MC3R stable cell line (CHO-K1/Gα15). Particulars: calcium flux functional assay. In kind it is cell-based. On the technique in general: A change in cytosolic calcium serves as a functional read-out for many receptors and channels.
Experimental: The Ca^2+ signalling functional assay was performed on a human recombinant MC3R stable cell line (CHO-K1/Gα15, GenScript). The cells were cultured at 37° C. and 5% CO2 with culture medium (90% Ham's F-12K (Kaighn's)+10% FBS+200 μg/mL Zeocin+100 μg/mL Hygromycin B). Cells were washed with PBS and then detached by incubation with 0.05% (w/v) Trypsin EDTA at 37° C. for 2-5 mins. Detached cells were suspended in Ham's F-12K (Kaighn's) (containing 10% FBS) and a 50 μL cell suspension was seeded into each well of a 384-well assay plate at a density of 10,000 cells/well. Cells were allowed to settle overnight at 37° C., 5% CO2. […] The compounds and reference compound ACTH were diluted in 4 folds starting from 50 uM. Then, 500 nL of compounds were transferred to the compound plate by the Echo machine. 30 uL assay buffer was added into the compounds plate and then shaken for 20-40 minutes. The plates were then placed on the FLIPR Tetra High-Throughput Cellular Screening System (FLIPR®, Molecular Devices) and 15 μL of the compound was added to each well, then calcium flux signal was measured.
In the case of `CSCC[C@H](NC(=O)[C@H](CO)NC(=O)[C@H](Cc1ccc(O)cc1)NC(=O)[C@H](CO)NC(C)=O)C(=O)N[C@@H](CCC(=O)O)C(=O)N[C@@H](Cc1c[nH]cn1)C(=O)N(C)[C@H](Cc1ccccc1)C(=O)N[C@@H](CCCNC(=N)N)C(=O)N[C@@H](Cc1c[nH]c2ccccc12)C(=O)NCC(=O)N[C@@H](CCCCN)C(=O)N1CCC[C@H]1C(=O)N[C@H](C(N)=O)C(C)C` [KR-025, Ac-Ser-Tyr-Ser-Met-Glu-His-(D-NMePhe)-Arg-Trp-Gly-Lys-Pro-Val-NH2], the IC50 is greater than 50000 nM.

For another test, the target named is T3, human recombinant MC5R (Homo sapiens, UniProt P33032).
T3 construct: host or cells: CHO-K1/Ga15
T3 sequence (P33032 whole entry): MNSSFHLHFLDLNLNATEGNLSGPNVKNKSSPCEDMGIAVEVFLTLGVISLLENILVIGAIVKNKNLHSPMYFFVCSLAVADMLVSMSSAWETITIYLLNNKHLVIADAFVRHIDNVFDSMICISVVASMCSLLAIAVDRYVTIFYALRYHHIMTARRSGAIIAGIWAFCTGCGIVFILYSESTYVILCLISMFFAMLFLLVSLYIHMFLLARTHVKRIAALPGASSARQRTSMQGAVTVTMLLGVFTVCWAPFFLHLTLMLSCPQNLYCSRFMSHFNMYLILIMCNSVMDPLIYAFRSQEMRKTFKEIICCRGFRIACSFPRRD
Nature of the test: Ca2+ signalling functional assay, MC5R stable cell line (CHO-K1/Ga15). In kind it is cell-based. Conditions: calcium flux functional assay.
Experimental: The Ca^2+ signalling functional assay was performed on a human recombinant MC5R stable cell line (CHO-K1/Ga15, GenScript). The cells were cultured at 37° C. and 5% C02 with culture medium (90% Ham's F-12K (Kaighn's)+10% FBS+400 μg/mL G418+100 μg/mL Hygromycin B). Cells were washed with PBS and then detached by incubation with 0.05% (w/v) Trypsin EDTA at 37° C. for 2 to 5 mins. Detached cells were suspended in Ham's F-12K (Kaighn's) (containing 10% FBS) and a 50 μL cell suspension is seeded into each well of a 384-well assay plate at a density of 15,000 cells/well. Cells were allowed to settle overnight at 37° C., 5% CO2. […] Then, 100 nL of compounds were transferred to the compound plate by the Echo machine. Thirty microliter assay buffer was added to the compounds plate and then shaken for 20-40 minutes. The plates were placed on the FLIPR and 15 μL of the compound was added to each well, then calcium flux signal was measured.
Turning to `CC(=O)N[C@@H](CCC(=O)O)C(=O)N[C@@H](Cc1c[nH]cn1)C(=O)N[C@@H](Cc1ccccc1)C(=O)N[C@@H](CCCNC(=N)N)C(=O)N[C@@H](Cc1c[nH]c2ccccc12)C(=O)NCC(=O)N[C@@H](CCCCN)C(=O)N1CCC[C@H]1C(=O)N[C@H](C(N)=O)C(C)C` [KR-004], the IC50 is greater than 10000 nM.
`CCCC[C@H](NC(C)=O)C(=O)N[C@H]1CCCCn2cc(nn2)C[C@@H](C(N)=O)NC(=O)[C@H](Cc2c[nH]c3ccccc23)NC(=O)[C@H](CCCNC(=N)N)NC(=O)[C@H](Cc2ccccc2)NC(=O)[C@H](Cc2c[nH]cn2)NC1=O` [KR-008, Ac-Nle-[Lys(N3)-His-Phe-Arg-Trp-Pra]-NH2] (Ac-[Nle][Lys(N3)]HFRW[Pra]-NH2; triazole 2-7): the IC50 was greater than 10000 nM.
As to `CC(=O)N[C@H]1CCCCn2cc(nn2)C[C@@H](C(N)=O)NC(=O)CNC(=O)[C@H](Cc2c[nH]c3ccccc23)NC(=O)[C@H](CCCNC(=N)N)NC(=O)[C@H](Cc2ccccc2)NC(=O)[C@H](Cc2c[nH]cn2)NC(=O)[C@H](CCC(=O)O)NC1=O` [KR-010, Ac-[Lys(N3)-Glu-His-Phe-Arg-Trp-Gly-Pra]-NH2] (Ac-[Lys(N3)]EHFRWG[Pra]-NH2; triazole 1-8), the IC50 was greater than 10000 nM.
Take `N=C(N)NCCC[C@@H]1NC(=O)[C@H](Cc2ccccc2)NC(=O)[C@H](Cc2c[nH]cn2)NC(=O)[C@H](CCC(=O)O)NC(=O)CSC[C@@H](C(N)=O)NC(=O)CNC(=O)[C@H](Cc2c[nH]c3ccccc23)NC1=O` [KR-012, Cyclo(-Ac-Glu-His-Phe-Arg-Trp-Gly-Cys)-NH2] ({CH2CO}-EHFRWGC-NH2; thioether N-7): the “MC5R IC50” value is reported as “Not fit”.
With `CC(=O)N[C@]1(C)CCCCCCC=CCCC[C@@](C)(C(N)=O)NC(=O)CNC(=O)[C@H](Cc2c[nH]c3ccccc23)NC(=O)[C@H](CCCNC(=N)N)NC(=O)[C@H](Cc2ccccc2)NC(=O)[C@H](Cc2c[nH]cn2)NC(=O)[C@H](CCC(=O)O)NC1=O` [KR-015, Ac-R8-Glu-His-Phe-Arg-Trp-Gly-S5-NH2] (Ac-[R8]EHFRWG[S5]-NH2; staple 1-8), the IC50 is greater than 10000 nM.
In the case of `CCCC[C@H](NC(C)=O)C(=O)N[C@H]1CCCn2cc(nn2)CC[C@@H](C(=O)N[C@@H](CCCCN)C(N)=O)NC(=O)[C@H](Cc2c[nH]c3ccccc23)NC(=O)[C@H](CCCNC(=N)N)NC(=O)[C@@H](Cc2ccccc2)NC(=O)[C@H](Cc2c[nH]cn2)NC1=O` [KR-068, Ac-Nle-[Orn(N3)-His-DPhe-Arg-Trp-Hpra]-Lys-NH2] (Ac-[Nle][Orn(N3)]H[dF]RW[Hpra]K-NH2; triazole 2-7), the IC50 stood at 40.3 nM.
As to Ac-EHFRWGKP-NH2 [KR-007], the IC50 is greater than 10000 nM.

A further test has as its target T4, human recombinant MC4R (Homo sapiens, UniProt P32245).
T4 construct: host or cells: CHO-K1/Gα15
Nature of the test: Ca2+ signalling functional assay, MC4R stable cell line (CHO-K1/Gα15). In kind it is cell-based. Particulars: calcium flux functional assay.
Experimental: The Ca^2+ signalling functional assay was performed on a human recombinant MC4R stable cell line (CHO-K1/Gα15, GenScript). The cells were cultured at 37° C. and 5% CO2 with culture medium (90% Ham's F-12K (Kaighn's)+10% FBS+8 μg/mL Puromycin+100 μg/mL Hygromycin B). Cells were washed with PBS and then detached by incubation with 0.05% (w/v) Trypsin EDTA at 37° C. for 2-5 mins. Detached cells were suspended in Ham's F-12K (Kaighn's) (containing 10% FBS) and a 50 μL cell suspension was seeded into each well of a 384-well assay plate at a density of 15,000 cells/well. Cells were allowed to settle overnight at 37° C., 5% CO2. The next day, the assay plate was centrifuged and the media was replaced with dye (1×) in assay buffer (containing HBSS, HEPES 20 mM and probenecid 1 mM) and incubated for 1 h at 37° C. […] Then, 100 nL of compounds were transferred to the compound plate by the Echo machine. 30 μL assay buffer was added to the compounds plate and then shaken for 20 to 40 minutes. The plates were placed on the FLIPR and 15 μL of the compound was added to each well, then calcium flux signal was measured.
With `CCCC[C@H](NC(C)=O)C(=O)N1CCC(=O)NCC[C@@H](C(=O)N[C@@H](Cc2c[nH]c3ccccc23)C(N)=O)NC(=O)[C@H](CCCNC(=N)N)NC(=O)[C@@H](Cc2ccccc2)NC(=O)[C@H](Cc2c[nH]cn2)NC(=O)C1` [KR-027, Ac-Nle-cyc(NGlu-His-DPhe-Arg-Dab)-Trp-NH2], the IC50 was 84.1 nM.
On to `CCCC[C@H](NC(C)=O)C(=O)N[C@H]1CCCCn2cc(nn2)C[C@H](C(=O)N[C@@H](CCCCN)C(N)=O)NC(=O)[C@H](Cc2c[nH]c3ccccc23)NC(=O)[C@H](CCCNC(=N)N)NC(=O)[C@@H](Cc2ccccc2)NC(=O)[C@H](Cc2c[nH]cn2)NC1=O` [KR-070, Ac-Nle-[Lys(N3)-His-DPhe-Arg-Trp-DPra]-Lys-NH2] (Ac-[Nle][Lys(N3)]H[dF]RW[dPra]K-NH2; triazole 2-7), for which the IC50 is 84.1 nM.
